From US11000033B2, “Ketone or oxime compound, and herbicide” (NISSAN CHEMICAL CORPORATION, priority 2014, dated 2021) come the findings set out here.

Format in all cases: in vivo
Data set [1] relates to Echinochloa crus-galli var. crus-galli. Briefly: Test Example 5: herbicidal effect by foliage application, plastic box (symbol H). Conditions: 320 g/ha, 3 weeks after application. Put shortly:
(§1)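 Effect is rated 3 weeks after a foliar spray of water-diluted emulsion concentrate at a predetermined herbicide amount. Plants had grown 14 days in a 25° C. to 30° C. greenhouse from seed in sterilized diluvial soil.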

A further data set relates to beet. Description: Test Example 4: effect on crop by soil treatment (symbol f). Conditions: for f: beet, effect on crop grade: application herbicide amount 320 g/ha. Summed up:
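Greenhouse culture at 25° C. to 30° C. followed sowing of seed in spots on sterilized diluvial soil with a soil cover close to 1.5 cm thick.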

A further data set concerns rapeseed. Description: Test Example 5: effect on crop by foliage application, plastic box (symbol g). Conditions: 320 g/ha, 3 weeks after application. Summed up:
(§2)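 Soil: sterilized diluvial. Container: plastic box, 21 × 13 cm, 7 cm deep. Sowing: spot-like, ~1.5 cm cover. Growth: greenhouse, 25° C. to 30° C.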

Another data set deals with corn. Briefly: Test Example 5: effect on crop by foliage application, plastic box (symbol c). The conditions noted are these: 320 g/ha, 3 weeks after application. Put shortly: as §2
Another data set has as its system Veronica persica. Description: Test Example 4: herbicidal effect by soil treatment (symbol R). Put shortly:
(§3)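 Seeds were sown in sterilized diluvial soil, covered with about 1.5 cm of soil, and the soil surface was sprayed with a water-diluted emulsion of the compound at a predetermined rate. Plants grew in a greenhouse at 25° C. to 30° C.; effects were scored visually 3 weeks after application.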

Data set [2] relates to Monochoria vaginalis. Briefly: Test Example 1: herbicidal activity, application before weed generation in submerged conditions (symbol C). The conditions noted are these: application herbicide amount 320 g/ha. Summed up:
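Ratings (5: ≥90%, near complete withering; 4: 70–<90%; 3: 40–<70%; 2: 20–<40%; 1: 5–<20%; 0: ≤5%) were assigned 3 weeks after the diluted emulsion was applied to the water surface of freshly sown, submerged pots.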

Data set [3] relates to directly sowed rice plant. Briefly: Test Example 3: effect on crop by foliage application, Wagner pot (symbol b). Conditions: application herbicide amount 320 g/ha. Summed up: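 Plants are raised from seed in flooded paddy conditions: water stands 0.1–0.5 cm over alluvial soil, and the pot is kept in a greenhouse at 25–30 °C. Species sown are barnyardgrass (E. crus-galli var. crus-galli), Leptochloa chinensis, Cyperus difformis and rice.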

The next data set concerns Setaria viridis. Description: Test Example 4: herbicidal effect by soil treatment (symbol G). Summed up:
as §3

In the next data set the test system is soybean. Description: Test Example 5: effect on crop by foliage application, plastic box (symbol d). Conditions: 320 g/ha, 3 weeks after application. Put shortly:
as §2

The next data set deals with Avena fatua. Briefly: Test Example 4: herbicidal effect by soil treatment (symbol I). Put shortly: as §3
The subject of a further data set is Chenopodium album. Description: Test Example 4: herbicidal effect by soil treatment (symbol O). Summed up:
as §3

The test system of data set [4] is Monochoria vaginalis. Description: Test Example 2: herbicidal activity, application during weed generation in submerged conditions (symbol C). The conditions noted are these: Table 23; application herbicide amount 320 g/ha; grade 0-5 by criteria of Test Example 1. Put shortly: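 Visual herbicidal ratings, taken three weeks after dosing, reflect post-emergence water-surface application to seedlings at one to two leaves. Conditions: co-sown weeds in alluvial soil flooded to 4 cm, greenhouse held at 25° C. to 30° C.; compound given as water-diluted emulsion at a fixed herbicide amount.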

The subject of another data set is Abutilon theophrasti. Briefly: Test Example 5: herbicidal effect by foliage application, plastic box (symbol M). Conditions: 320 g/ha, 3 weeks after application. Summed up:
as §1

In a further data set the test system is Apera spica-venti. Description: Test Example 5: herbicidal effect by foliage application, plastic box (symbol L). The conditions noted are these: 320 g/ha, 3 weeks after application. Put shortly: as §1
The mark [5] stands for this setting: application herbicide amount 320 g/ha.

Take `CON=C(C)CC1CC(OC(=O)c2ccc(S(C)(=O)=O)c(C(=O)OC)c2Cl)=C(c2c(C)cc(C)cc2C)C1=O` (centres unmarked) [1-162]: in [1], the “H: Echinochloa crus-galli var. crus-galli, herbicidal effect grade” value was 5 (Herbicidal ratio of 90% or more (almost completely withered)). Besides, the “f: beet, effect grade on crop” value in the data set with beet (320 g/ha) is on record as 0 (Herbicidal ratio of 5% or lower (almost no effect)). Besides, the “g: rapeseed, effect on crop grade” value in the data set with rapeseed is 4 (Herbicidal ratio of 70% or higher and lower than 90%). Also, the “c: corn, effect on crop grade” value in the data set on corn was 4 (Herbicidal ratio of 70% or higher and lower than 90%). In addition, the “R: Veronica persica, herbicidal effect grade” value (“R: Veronica persica” below) in the data set on Veronica persica (320 g/ha) is listed as 0 (Herbicidal ratio of 5% or lower (almost no effect)). Further, the “Herbicidal effect grade, C: Monochoria vaginalis” value (shortened to “Herbicidal effect grade, C”) is 3 (Herbicidal ratio of 40% or higher and lower than 70%) with Monochoria vaginalis [2]; 2 (Herbicidal ratio of 20% or higher and lower than 40%) in the data set on Monochoria vaginalis [4]. For the same compound, in [3], the “effect on crop b (directly sowed rice plant), grade 0-5” value (“effect on crop b” for short) was 5 (Herbicidal ratio of 90% or more (almost completely withered)). Moreover, the “G: Setaria viridis, herbicidal effect grade” value (shortened to “G: Setaria viridis”) with Setaria viridis (320 g/ha) is recorded as 5 (Herbicidal ratio of 90% or more (almost completely withered)). In addition, the “d: soybean, effect on crop grade” value in the data set with soybean was 2 (Herbicidal ratio of 20% or higher and lower than 40%). Besides, the “I: Avena fatua, herbicidal effect grade” value with Avena fatua (320 g/ha) was 3 (Herbicidal ratio of 40% or higher and lower than 70%). Besides, in the data set with Chenopodium album (320 g/ha), the “O: Chenopodium album, herbicidal effect grade” value (“O: Chenopodium album” below) is recorded as 0 (Herbicidal ratio of 5% or lower (almost no effect)). In addition, in the data set on Abutilon theophrasti, the “M: Abutilon theophrasti, herbicidal effect grade” value (“M: Abutilon theophrasti” below) is 4 (Herbicidal ratio of 70% or higher and lower than 90%). Besides, in the data set on Apera spica-venti, the “L: Apera spica-venti, herbicidal effect grade” value (shortened to “L: Apera spica-venti”) was 5 (Herbicidal ratio of 90% or more (almost completely withered)).

As to `CCC(=O)CC1CC(O)=C(c2c(C)cc(C)cc2C)C1=O` (centres unmarked) [2-006], the “H: Echinochloa crus-galli var. crus-galli, herbicidal effect grade” value in data set [1] was 4 (Herbicidal ratio of 70% or higher and lower than 90%). For the same compound, the “f: beet, effect on crop grade” value in the data set on beet was 0 (Herbicidal ratio of 5% or lower (almost no effect)). In addition, the “g: rapeseed, effect on crop grade” value with rapeseed is given as 0 (Herbicidal ratio of 5% or lower (almost no effect)). Moreover, the “c: corn, effect on crop grade” value in the data set on corn is given as 0 (Herbicidal ratio of 5% or lower (almost no effect)). For the same compound, in the data set with Veronica persica (setting [5]), the “R: Veronica persica” value is listed as 0 (Herbicidal ratio of 5% or lower (almost no effect)). The “Herbicidal effect grade, C” value is 3 (Herbicidal ratio of 40% or higher and lower than 70%) in the data set on Monochoria vaginalis [2]; 2 (Herbicidal ratio of 20% or higher and lower than 40%) in the data set on Monochoria vaginalis [4]. In addition, in data set [3], the “effect on crop b” value was 5 (Herbicidal ratio of 90% or more (almost completely withered)). In addition, the “G: Setaria viridis” value in the data set on Setaria viridis (setting [5]) is given as 5 (Herbicidal ratio of 90% or more (almost completely withered)). Moreover, the “d: soybean, effect on crop grade” value in the data set with soybean was 0 (Herbicidal ratio of 5% or lower (almost no effect)). The “I: Avena fatua, herbicidal effect grade” value in the data set on Avena fatua (setting [5]) is 3 (Herbicidal ratio of 40% or higher and lower than 70%). For the same compound, in the data set with Chenopodium album (setting [5]), the “O: Chenopodium album” value is 0 (Herbicidal ratio of 5% or lower (almost no effect)). Further, the “M: Abutilon theophrasti” value in the data set with Abutilon theophrasti is given as 0 (Herbicidal ratio of 5% or lower (almost no effect)). Also, the “L: Apera spica-venti” value with Apera spica-venti is 3 (Herbicidal ratio of 40% or higher and lower than 70%).

For `CCOC(=O)C(C(=O)c1ccccc1)C1CC(O)=C(c2c(C)cc(C)cc2C)C1=O` (centres unmarked) [2-008], in data set [1], the “H: Echinochloa crus-galli var. crus-galli, herbicidal effect grade” value is 3 (Herbicidal ratio of 40% or higher and lower than 70%). Moreover, the “f: beet, effect on crop grade” value with beet is 0 (Herbicidal ratio of 5% or lower (almost no effect)). Moreover, the “g: rapeseed, effect on crop grade” value with rapeseed is 3 (Herbicidal ratio of 40% or higher and lower than 70%). Besides, the “c: corn, effect on crop grade” value in the data set on corn is 1 (Herbicidal ratio of 5% or higher and lower than 20%). Besides, in the data set on Veronica persica (setting [5]), the “R: Veronica persica” value is 0 (Herbicidal ratio of 5% or lower (almost no effect)). For the same compound, the “Herbicidal effect grade, C” value in the data set on Monochoria vaginalis [2] and with Monochoria vaginalis [4] was 0 (Herbicidal ratio of 5% or lower (almost no effect)) each time. The “effect on crop b” value in [3] is 0 (Herbicidal ratio of 5% or lower (almost no effect)). Moreover, the “G: Setaria viridis” value in the data set on Setaria viridis (setting [5]) is 0 (Herbicidal ratio of 5% or lower (almost no effect)). Besides, the “d: soybean, effect on crop grade” value with soybean was 1 (Herbicidal ratio of 5% or higher and lower than 20%). The “I: Avena fatua, herbicidal effect grade” value with Avena fatua (setting [5]) is 0 (Herbicidal ratio of 5% or lower (almost no effect)). For the same compound, the “O: Chenopodium album” value in the data set with Chenopodium album (setting [5]) is 0 (Herbicidal ratio of 5% or lower (almost no effect)). Further, the “M: Abutilon theophrasti” value in the data set with Abutilon theophrasti is listed as 0 (Herbicidal ratio of 5% or lower (almost no effect)). Also, the “L: Apera spica-venti” value with Apera spica-venti is 0 (Herbicidal ratio of 5% or lower (almost no effect)).

For `CCOC(=O)C(C(=O)C(F)(F)F)C1CC(O)=C(c2c(C)cc(C)cc2C)C1=O` (centres unmarked) [2-010], the “H: Echinochloa crus-galli var. crus-galli, herbicidal effect grade” value in data set [1] is 0 (Herbicidal ratio of 5% or lower (almost no effect)). In addition, in the data set with beet, the “f: beet, effect on crop grade” value was 0 (Herbicidal ratio of 5% or lower (almost no effect)). Moreover, the “g: rapeseed, effect on crop grade” value with rapeseed is reported as 0 (Herbicidal ratio of 5% or lower (almost no effect)). Further, in the data set on corn, the “c: corn, effect on crop grade” value was 0 (Herbicidal ratio of 5% or lower (almost no effect)). Further, the “R: Veronica persica” value in the data set with Veronica persica (setting [5]) was 0 (Herbicidal ratio of 5% or lower (almost no effect)). In addition, the “Herbicidal effect grade, C” value in the data set on Monochoria vaginalis [2] and in the data set with Monochoria vaginalis [4] was 0 (Herbicidal ratio of 5% or lower (almost no effect)) each time. Moreover, the “effect on crop b” value in [3] is 1 (Herbicidal ratio of 5% or higher and lower than 20%). Also, in the data set on Setaria viridis (setting [5]), the “G: Setaria viridis” value was 0 (Herbicidal ratio of 5% or lower (almost no effect)). Also, the “d: soybean, effect on crop grade” value in the data set with soybean was 0 (Herbicidal ratio of 5% or lower (almost no effect)). Moreover, in the data set with Avena fatua (setting [5]), the “I: Avena fatua, herbicidal effect grade” value was 0 (Herbicidal ratio of 5% or lower (almost no effect)). Further, the “O: Chenopodium album” value in the data set on Chenopodium album (setting [5]) is 0 (Herbicidal ratio of 5% or lower (almost no effect)). The “M: Abutilon theophrasti” value in the data set on Abutilon theophrasti is 0 (Herbicidal ratio of 5% or lower (almost no effect)). Further, in the data set with Apera spica-venti, the “L: Apera spica-venti” value is 0 (Herbicidal ratio of 5% or lower (almost no effect)).
